From a compilation of properties of binary mixtures (doi:10.1016/j.jct.2017.01.014)

Assay: xn = mol fraction of the nth substance listed
Settings: 100 kPa

CCCC[n+]1ccn(C)c1.O=S(=O)([N-]S(=O)(=O)C(F)(F)F)C(F)(F)F + C=CN1CCCC1=O
x2 = 0
Settings | speed of sound [m/s]
298.15 K | 1227.9
303.15 K | 1216.8
308.15 K | 1205.8
313.15 K | 1195
318.15 K | 1184.2
323.15 K | 1173.6

C=CN1CCCC1=O + CCCC[n+]1ccn(C)c1.O=S(=O)([N-]S(=O)(=O)C(F)(F)F)C(F)(F)F
speed of sound [m/s]
Settings | x1 = 0.1377 | x1 = 0.2099 | x1 = 0.3148 | x1 = 0.4117 | x1 = 0.5061 | x1 = 0.6078 | x1 = 0.7032 | x1 = 0.79 | x1 = 0.8989 | x1 = 1
298.15 K | 1241.2 | 1249.4 | 1263 | 1278.3 | 1296.5 | 1321.4 | 1350.7 | 1384.6 | 1442.2 | –
303.15 K | 1229.8 | 1237.8 | 1251.1 | 1266.1 | 1283.9 | 1308.1 | 1336.6 | 1369.6 | 1425.6 | 1502.5
308.15 K | 1218.5 | – | – | 1253.8 | 1271.2 | 1294.7 | 1322.7 | 1354.8 | 1409.1 | 1483.7
313.15 K | 1207.3 | – | 1227.5 | 1241.7 | – | 1281.5 | 1308.7 | 1340 | 1392.8 | 1465
318.15 K | – | 1203.6 | – | 1229.7 | 1246.1 | 1268.4 | 1294.9 | 1325.3 | 1376.5 | –
323.15 K | 1185.3 | – | – | 1217.8 | 1233.8 | 1255.4 | 1281.1 | 1310.5 | 1360.3 | 1428.1
